The source of these data is patent US12268710B2, “Method of treating severe forms of pulmonary hypertension” (ReversPAH LLC, priority 2019, dated 2025).

Entries after “also recorded” stand apart in the source; their conditions may differ.

For data set [1], the system named is Sugen/Hypoxia rats (SuHx) with established PAH. Put plainly: Sugen 5416/chronic hypoxia rat model of severe angio-obliterative PAH. The format is in vivo. As to the method: Specifically, FIGS. 4A and B, which are from the paper which included Norbert F. Voelkel as a senior author, show the compared results of control rats, Sugen/Hypoxia rats (SuHx) with established PAH, and SuHx rats treated with TTM in an amount of 10 mg/kg every other day for 10 days. […] FIG. 5 provides the results, which compares the degree of obliteration of c-kit^+ expressing stem cells in the lung vessels of Sugen/Hypoxia rats (SuHx) treated with a vehicle (SuHx-vehicle) and Sugen/Hypoxia rats treated with TTM (SuHx-TTM) in an amount of 10 mg/kg every other day for 10 days. Third, copper plays a role in the alteration of genes of the cytochrome P450. The lung and, in particular, the lung vascular endothelial cells (EC) are involved in drug metabolism and the handling of toxic substances. It is known that cigarette smoke toxins highly up-regulate the expression of specific drug metabolizing genes, the genes of the cytochrome P450 super-family. There are 56 known cytochrome P450 genes coding for 56 isozymes. These enzymes metabolize 75% of all drugs in use, including all of the vasodilator drugs conventionally used for PAH treatment. These enzymes also are involved in cell growth and differentiation, in cholesterol and estrogen metabolism and for many years a role of these enzymes in the pathogenesis of cancers has been examined (in particular prostate, breast and lung cancer) (Kwapiszewska G et al, Circulation Research, submitted 2019). Norbert F. Voelkel discovered that the drug Sugen 5416, a component of the Sugen-induced rat models of angio-obliterative PAH, induces some of these cytochrome P450 isozyme genes more than 200-fold (Al-Husseini et al, Pulm Circ. 2015 March; 5(1); 101-116). […] Specifically, the vessel lumina are occluded in the not-treated animals (SuHx), whereas they have been reopened after the treated animals (SuHx+TTM) received 10 mg/kg TTM every other day for 10 days. […] The treatment lasted 3 weeks (21 days) with DEC being administered in an amount of 50 mg/kg daily treatment. Norbert F. Voelkel concludes that the anti-inflammatory drug DEC affects developing PAH and is partially effective once angio-obliterative PAH has been established.

The subject of data set [2] is patient with pulmonary veno-occlusive disease (PVOD). The data set is described as follows: Low-dose MTX treatment of one patient with pulmonary veno-occlusive disease. The format is in vivo, human. The text has this: Another possible co-drug is methotrexate. […] MTX is of particular interest because it is an inhibitor of the enzyme dihydrofolate reductase and thereby inhibits DNA, RNA and protein synthesis, which is the desired action in cancer treatment at high MTX doses. Norbert Voelkel has prescribed MTX for one patient with pulmonary veno-occlusive disease, which is a rare form of severe PH. […] The anti-inflammatory and immune system affecting action of MTX is accomplished with low doses. […] PVOD is a fatal and extremely rare PH disorder. […] Vasodilator-induced lung edema precludes the use of vasodilator drugs in these patients.

Data set [3] concerns rodent models of PH. Particulars: in vivo; cited from earlier work.
The test system of data set [4] is cytochrome P450 isozyme genes. The data set is described as follows: Induction of cytochrome P450 isozyme genes by Sugen 5416. Particulars: Al-Husseini et al, Pulm Circ. 2015. From the text:
Third, copper plays a role in the alteration of genes of the cytochrome P450. The lung and, in particular, the lung vascular endothelial cells (EC) are involved in drug metabolism and the handling of toxic substances. It is known that cigarette smoke toxins highly up-regulate the expression of specific drug metabolizing genes, the genes of the cytochrome P450 super-family. There are 56 known cytochrome P450 genes coding for 56 isozymes. These enzymes metabolize 75% of all drugs in use, including all of the vasodilator drugs conventionally used for PAH treatment. These enzymes also are involved in cell growth and differentiation, in cholesterol and estrogen metabolism and for many years a role of these enzymes in the pathogenesis of cancers has been examined (in particular prostate, breast and lung cancer) (Kwapiszewska G et al, Circulation Research, submitted 2019). Norbert F. Voelkel discovered that the drug Sugen 5416, a component of the Sugen-induced rat models of angio-obliterative PAH, induces some of these cytochrome P450 isozyme genes more than 200-fold (Al-Husseini et al, Pulm Circ. 2015 March; 5(1); 101-116). […] Specifically, the vessel lumina are occluded in the not-treated animals (SuHx), whereas they have been reopened after the treated animals (SuHx+TTM) received 10 mg/kg TTM every other day for 10 days.

Data set [5] relates to angiogenesis. Particulars: high dosage; through the induction of apoptosis; cited from earlier work.
The test system of data set [6] is silica-induced lung inflammation and fibrosis. Particulars: by inhibiting T-helper 17 cell (TH 17); cited from earlier work.
Data set [7] deals with colon cancer. Particulars: by apoptosis and cellular senescence; cited from earlier work.
For data set [8], the system named is monocrotaline-induced pulmonary hypertension. Particulars: through the bone morphogenetic protein signaling pathway; cited from earlier work.
Data set [9] deals with Sugen/Hypoxia rats (SuHx) with established PAH. Particulars: Farkas D. et al 2014; cited from earlier work.
Where [10] appears, read: DEC study 2015 (Al Husseini et al).
The mark [11] stands for this setting: after lung vascular disease established, 50 mg/kg daily for 3 weeks (21 days).
Setting [12] is: established severe PAH, treated for two weeks.

On to `CCN(CC)C(=O)N1CCN(C)CC1` [DEC, diethylcarbamazine], for which, in [1] (setting [10]), the “muscularization of pulmonary arterioles” value is “blunted” and the “number of fully obliterated lung vessels” value is “reduced”. Also, the “occluded vessels (FIGS. 8A-C)” value in data set [1] (SuHx+DEC vs SuHx) is “reopens occluded vessels”. For the same molecule, in data set [1] (setting [11]), the “degree of PAH” value is on record as “reduced”, the “degree of perivascular inflammation” value is “reduced” and the “number of obliterated arterioles” value was “reduced”.
Regarding `CN(Cc1cnc2nc(N)nc(N)c2n1)c1ccc(C(=O)N[C@@H](CCC(=O)O)C(=O)O)cc1` [MTX, Methotrexate], in data set [2], the “reversal of the PH” value is on record as “did not reverse the PH” and the survival entry is reported as “prolonged survival”. Also, in data set [2] (low dose MTX), the “progression of the disease (PVOD)” value was “arrested the proliferative progression; also recorded: halted”.
Regarding `O=c1c(O)c(-c2ccc(O)c(O)c2)oc2cc(O)cc(O)c12` [Quercetin], the “vascular remodeling in rodent models of PH” value in data set [3] is given as “inhibit”.
Turning to `Cc1cc(C)c(/C=C2\C(=O)Nc3ccccc32)[nH]1` [Sugen 5416], in [4], the “induction of some cytochrome P450 isozyme genes” value is on record as “more than 200 fold”.
Consider `[NH4+].[NH4+].[SH-].[SH-].[S]=[Mo]=[S]` [TTM, ammonium tetrathiomolybdate], for which the “expression of integrin protein alpha v beta 3 in lung (FIGS. 4A, B)” value in data set [1] (10 mg/kg every other day for 10 days) was “reduced; also recorded: normalized”. For the same molecule, the “lung vessel lumina / arterioles (immunohistochemistry, FIG. 2)” value in data set [1] (10 mg/kg every other day for 10 days, intraperitoneal, SuHx+TTM vs SuHx) is reported as “reopened; also recorded: reopens lung arterioles”. Further, the “number of c-kit+ precursor cells in the lung vascular lesions (FIG. 5)” value in data set [1] (10 mg/kg every other day for 10 days, vs SuHx-vehicle) is on record as “reduced the number of c-kit+ precursor cells”. The “expression of anoikis marker protein BIM in lung tissue (FIG. 3)” value in [1] (SuHx-TTM vs SuHx, referenced to beta-actin) was “upregulated”. Moreover, the “anoikis, evidenced by cells expressing the marker BIM” value in [1] (TTM-treated SuHx rats) is “induced anoikis”. For the same molecule, in [1] (setting [12]), the occluded lung vessels result is recorded as “reopening of occluded lung vessels”, the pulmonary arterial pressure entry is given as “cut the pulmonary arterial pressure in half” and the “reversal of established severe PAH” value was “reversed the PAH”.
For the molecule `O=C(O)[C@H]1O[C@@H](Oc2cc3oc(-c4ccccc4)cc(=O)c3c(O)c2O)[C@H](O)[C@@H](O)[C@@H]1O` [baicalin], the angiogenesis result in data set [5] is “inhibit angiogenesis”. For the same molecule, in data set [6], the “silica-induced lung inflammation and fibrosis” value was “alleviate”. Moreover, the colon cancer result in data set [7] is given as “inhibit colon cancer”. For the same molecule, the monocrotaline-induced pulmonary hypertension entry in [8] is “attenuate”.
In the case of `S=C(S)N1CCCC1` [pyrrolidine dithiocarbamate], the “reversal of established angio-obliterative PAH” value in data set [9] is on record as “reverse established angio-obliterative PAH”.
